Measurements taken from US4748165A, “Amidine derivatives” (Imperial Chemical Industries PLC, priority 1981, dated 1988).

Columns and labels:
anaesthetised rats = experiment: intravenous toxicity in anaesthetised rats; type: in vivo; settings: intravenously, two anaesthetised rats, ten times the dose giving approximate 50% inhibition of gastric secretion in the anaesthetised rat
Description: (§1) No overt toxicity or side effects were noted during the rat or dog tests. The compounds N-cyano-5-(4-[2-propylguanidino]pyrimid-2-yl)valeramidino was administered intravenously to groups of two anaesthetised rats and four conscious mice at doses which were respectively ten times and one hundred times the dose, in mg./kg., which produced an approximate 50% inhibition of gastric secretion in the anaesthetised rat.

conscious mice = experiment: intravenous toxicity in conscious mice; type: in vivo, mouse; settings: intravenously, four conscious mice, one hundred times the dose giving approximate 50% inhibition of gastric secretion in the anaesthetised rat
Description: as §1

Question: What does the source list for `CCCN=C(N)Nc1ccnc(CCCCC(=N)NC#N)n1` [Example 2, N-cyano-5-(4-[2-propylguanidino]pyrimid-2-yl)valeramidine]?
Answer: toxic symptoms (anaesthetised rats): No toxic symptoms; toxic symptoms (conscious mice): No toxic symptoms
